Values joined by “and” are separate entries in the source; they are usually repeats but may differ in a detail not shown here. Identical values can stand only once. Like-named read-outs stand apart in the source and are kept apart here.
What was measured:
OATP1B1 [1] = molecular target: T1, OATP1B1 (Homo sapiens, UniProt Q9Y6L6); conditions: CP-I 0.1 µM; 30-minute pre-incubation; HEK293; published data; ref 1 (Rodrigues AD 2023); cited from earlier work
T1 construct: expressed in transfected cells; host or cells: HEK293
T1 sequence (Q9Y6L6 1-691): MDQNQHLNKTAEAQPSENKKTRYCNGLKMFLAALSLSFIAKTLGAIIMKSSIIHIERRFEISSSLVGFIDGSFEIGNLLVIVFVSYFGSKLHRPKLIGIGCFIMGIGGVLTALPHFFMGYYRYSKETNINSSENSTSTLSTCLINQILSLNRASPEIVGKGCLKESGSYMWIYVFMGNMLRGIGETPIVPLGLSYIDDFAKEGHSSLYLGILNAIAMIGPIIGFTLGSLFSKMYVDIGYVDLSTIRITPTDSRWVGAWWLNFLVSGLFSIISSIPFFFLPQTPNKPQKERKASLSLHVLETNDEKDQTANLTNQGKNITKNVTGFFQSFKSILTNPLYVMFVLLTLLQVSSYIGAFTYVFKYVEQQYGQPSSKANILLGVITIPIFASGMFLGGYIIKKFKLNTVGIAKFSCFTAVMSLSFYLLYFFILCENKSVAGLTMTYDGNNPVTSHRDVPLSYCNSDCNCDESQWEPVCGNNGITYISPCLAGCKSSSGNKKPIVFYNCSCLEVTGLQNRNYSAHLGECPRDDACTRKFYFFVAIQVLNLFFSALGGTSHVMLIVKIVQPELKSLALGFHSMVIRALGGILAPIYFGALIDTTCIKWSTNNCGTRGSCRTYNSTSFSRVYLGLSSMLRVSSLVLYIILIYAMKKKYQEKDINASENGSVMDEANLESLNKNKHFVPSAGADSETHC

OATP1B3 = molecular target: T2, OATP1B3 (Homo sapiens, UniProt Q9NPD5); conditions: CP-I 0.1 µM; 30-minute pre-incubation; HEK293; published data; ref 1 (Rodrigues AD 2023); cited from earlier work
T2 construct: expressed in transfected cells; host or cells: HEK293
T2 sequence (Q9NPD5 1-702): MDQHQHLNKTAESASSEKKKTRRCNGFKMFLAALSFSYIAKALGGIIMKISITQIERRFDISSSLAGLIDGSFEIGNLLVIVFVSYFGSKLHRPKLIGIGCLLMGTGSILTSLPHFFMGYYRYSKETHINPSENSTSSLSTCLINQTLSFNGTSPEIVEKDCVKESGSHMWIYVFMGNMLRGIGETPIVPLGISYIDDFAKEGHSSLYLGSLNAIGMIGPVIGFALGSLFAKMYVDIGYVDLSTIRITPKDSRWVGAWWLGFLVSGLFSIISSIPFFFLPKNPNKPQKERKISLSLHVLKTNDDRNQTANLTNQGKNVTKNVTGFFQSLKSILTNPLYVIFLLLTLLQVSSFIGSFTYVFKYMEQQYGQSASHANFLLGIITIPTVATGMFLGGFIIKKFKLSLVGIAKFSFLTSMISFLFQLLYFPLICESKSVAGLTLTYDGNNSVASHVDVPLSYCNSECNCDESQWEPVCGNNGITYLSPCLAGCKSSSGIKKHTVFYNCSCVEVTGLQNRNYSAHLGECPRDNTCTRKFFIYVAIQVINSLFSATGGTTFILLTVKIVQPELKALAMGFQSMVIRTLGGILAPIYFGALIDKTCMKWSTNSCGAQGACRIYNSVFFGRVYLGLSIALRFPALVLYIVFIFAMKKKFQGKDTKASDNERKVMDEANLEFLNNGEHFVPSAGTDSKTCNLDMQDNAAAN

[2] = cited from earlier work; for Imax,inlet,u: ka = 0.1 min^-1 assumed, ref 1 (Rodrigues AD 2023)
OATP1B1 [3] = conditions: cited from earlier work; for ∆CP-I Observed: AUC ratio or single CP-I concentration ratio ± perpetrator, ref 1 (Rodrigues AD 2023)
OAT1/3 [4] = assay: Plasma PDA as endogenous biomarker of OAT1/3 in clinical DDI studies; assay type: in vivo, human; conditions: for AUC24 / Cmax: geometric mean (%CV)
Experimental: (§1) Blood and urine samples were collected at prespecified timepoints. Rosuvastatin plasma samples (~ 6 mL) were collected predose and at 0.5, 1, 2, 3, 4, 5, 6, 8, 10, 12, 16, 24, 36, 48, and 72 h postdose. CP-I and PDA plasma samples (~ 6 mL) were collected predose and at 0.5, 1, 2, 3, 4, 5, 6, 8, 10, 12, 16, and 24 h post rosuvastatin dosing. Rosuvastatin urine samples were collected at predose, 0–6 h, 6–12, 12–24, 24–48, and 48–72 h postdose. Each participant emptied their bladder just prior to dosing.
Quantification of PDA was conducted by mass spectrometry according to Towner et al.. […] Mass spectrometry detection of the analytes were achieved using a SCIEX API QTrap 5500 mass spectrometry and a Turbo V electrospray ionization source in negative ion mode. Plasma samples were prepared by protein precipitation by spiking 50 μL of sample with 200 μL of 300 ng/mL 4-aminosalicylic acid internal standard. After vortexing/centrifugation, 200 μL of supernatant was transferred and 1 μL injections were analyzed. A 1/x^2 weighted linear regression was used to quantitate sample concentrations.
(§2) The PK parameters for rosuvastatin, CP-I and PDA were calculated for each participant and each treatment using Pfizer’s internally validated electronic noncompartmental analysis software (eNCA) version 2.4.4. Samples below the lower limit of quantitation were set to zero for the PK analysis. Actual sample collection times were used for the PK analysis.
(§3) Natural log transformed area under the plasma concentration-time profile from time 0 extrapolated to infinity (AUCinf), maximum plasma concentration (Cmax), and apparent renal clearance (CLr) were analyzed using a mixed effect model with treatment as a fixed effect and participant as a random effect (SAS version 9.4; SAS Institute, Cary, NC, USA). Estimates of the adjusted mean differences (Test-Reference) and corresponding 90% CIs were obtained from the model. The adjusted mean difference and 90% CIs for the differences were exponentiated to provide estimates of the ratio of adjusted geometric means (Test/Reference) and 90% CIs for the ratios. Rosuvastatin alone was the reference treatment, while the rosuvastatin coadministered with ritlecitinib was the Test treatment.

OAT1/3 [5] = conditions: plasma PDA in the presence of probenecid; cited from earlier work
OATP1B1 [6] = assay: Plasma CP-I as endogenous biomarker of OATP1B1 in clinical DDI studies; assay type: in vivo, human; set-up: AUC24 / Cmax: unit not given beside the values; conditions: for AUC24 / Cmax: geometric mean (%CV)
Experimental: as §1
Quantification of CP-I was conducted by mass spectrometry according to King-Ahmad et al.. Plasma samples were spiked with stable label internal standard (^15N4-coproporphyrin I). CP-I was isolated through supported liquid extraction. The eluate was evaporated under a nitrogen stream at approximately 45 °C, and the remaining residue was reconstituted with 125 μL of water/acetonitrile/formic acid (750:250: 1, v/v/v). The final extract was analyzed via UPLC® with column switching and MS/MS detection using positive ion electrospray. A linear, 1/x^2 weighted, least-squares regression algorithm was used to quantitate sample concentrations.
as §2, §3

OCT1 = test system: OCT1; set-up: method as in PMID 36807251; conditions: cited from earlier work
[7] = rosuvastatin 10 mg + ritlecitinib 200 mg QD
[8] = with vs without ritlecitinib 200 mg QD

C[C@H]1CCN1c1nc(N2C[C@@H]3[C@@H](CC(=O)O)[C@@H]3C2)cc(C(F)(F)F)n1 [PF-06835919]
IC50 (OATP1B1 [1]): 4300 nM
IC50 (OATP1B3): 5600 nM
Imax,inlet,u ([2]; inhibitor dose 50 mg): 1.5 µM
Imax,inlet,u ([2]; inhibitor dose 100 mg): 2.5 µM
Imax,inlet,u ([2]; inhibitor dose 280 mg): 8.2 µM
Imax,inlet,u ([2]; inhibitor dose 400 mg): 10.3 µM
Imax,inlet,u ([2]; inhibitor dose 600 mg): 15.3 µM
∆CP-I Observed (OATP1B1 [3]; inhibitor dose 50 mg): 1.1
∆CP-I Observed (OATP1B1 [3]; inhibitor dose 100 mg): 1.2
∆CP-I Observed (OATP1B1 [3]; inhibitor dose 280 mg): 1.5
∆CP-I Observed (OATP1B1 [3]; inhibitor dose 400 mg): 1.3
∆CP-I Observed (OATP1B1 [3]; inhibitor dose 600 mg): 1.8

CCC(C)n1ncn(-c2ccc(N3CCN(c4ccc(OCC5COC(Cn6cncn6)(c6ccc(Cl)cc6Cl)O5)cc4)CC3)cc2)c1=O (stereo not shown) [Itraconazole]
IC50 (OATP1B1 [1]): 20000 nM
IC50 (OATP1B3): 20000 nM
Imax,inlet,u ([2]; inhibitor dose 200 mg): 0.3 µM
∆CP-I Observed (OATP1B1 [3]; inhibitor dose 200 mg): 0.9

O=C(O)[C@H]1C2CCC(CC2)[C@@H]1Nc1nc(-c2c[nH]c3ncc(F)cc23)ncc1F [Pimodivir]
IC50 (OATP1B1 [1]): 500 nM
IC50 (OATP1B3): 1100 nM
Imax,inlet,u ([2]; inhibitor dose 600 mg): 0.4 µM
∆CP-I Observed (OATP1B1 [3]; inhibitor dose 600 mg): 1.4

Cc1ncc(CO)c(C(=O)O)c1O [PDA, pyridoxic acid]
AUC24 (OAT1/3 [4]; [7]): 69.47 (33)
Cmax (OAT1/3 [4]; [7]): 3.765 (28)
AUC24 (OAT1/3 [4]; rosuvastatin 10 mg alone): 67.34 (30)
Cmax (OAT1/3 [4]; rosuvastatin 10 mg alone): 3.664 (29)
AUC24 % Ratio (Test/Reference) of Adjusted Geometric Means (90% CI) (OAT1/3 [4]; [8]): 103.16 (87.65, 121.42) %
Cmax % Ratio (Test/Reference) of Adjusted Geometric Means (90% CI) (OAT1/3 [4]; [8]): 102.76 (87.58, 120.58) %
increase in plasma AUC (OAT1/3 [5]): 3.1 fold

COc1ccc([C@@H]2Sc3ccccc3N(CCN(C)C)C(=O)[C@@H]2OC(C)=O)cc1 [Diltiazem]
IC50 (OATP1B1 [1]): 100000 nM
IC50 (OATP1B3): 175000 nM

CC(=O)O[C@H]1C(=O)[C@@]2(C)[C@H]([C@H](OC(=O)c3ccccc3)[C@]3(O)C[C@H](OC(=O)[C@H](O)[C@@H](NC(=O)c4ccccc4)c4ccccc4)C(C)=C1C3(C)C)[C@]1(OC(C)=O)CO[C@@H]1C[C@@H]2O [Paclitaxel]
IC50 (OATP1B3): 700 nM
∆CP-I Observed (OATP1B1 [3]; inhibitor dose 200 mg): 2.8

CCCN(CCC)S(=O)(=O)c1ccc(C(=O)O)cc1 [Probenecid]
IC50 (OATP1B3): 118000 nM
Cmax,u ([2]; inhibitor dose 1000 mg): 22 µM
Imax,inlet,u ([2]; inhibitor dose 1,000 mg): 56.6 µM
∆CP-I Observed (OATP1B1 [3]; inhibitor dose 1,000 mg): 1.4

coproporphyrin I [CP-I]
AUC24 (OATP1B1 [6]; [7]): 8729 (21)
Cmax (OATP1B1 [6]; [7]): 418.8 (19)
AUC24 (OATP1B1 [6]; rosuvastatin 10 mg alone): 8915 (21)
Cmax (OATP1B1 [6]; rosuvastatin 10 mg alone): 427.1 (22)
AUC24 % Ratio (Test/Reference) of Adjusted Geometric Means (90% CI) (OATP1B1 [6]; [8]): 97.91 (92.24, 103.94) %
Cmax % Ratio (Test/Reference) of Adjusted Geometric Means (90% CI) (OATP1B1 [6]; [8]): 98.06 (93.13, 103.26) %
increase in exposure (AUC24) (OATP1B1 [3]; plasma CP-I with coadministration of rifampicin vs rosuvastatin alone): 4.0 fold

CC/C(=C(/c1ccc(/C=C/C(=O)O)cc1)c1ccc2[nH]ncc2c1)c1ccc(F)cc1Cl [GDC-0810]
IC50 (OATP1B1 [1]): 200 nM
IC50 (OATP1B3): 900 nM
Imax,inlet,u ([2]; inhibitor dose 600 mg): 0.009 µM
∆CP-I Observed (OATP1B1 [3]; inhibitor dose 600 mg): 1.5

COc1ccc2c(O[C@@H]3C[C@H]4C(=O)N[C@]5(C(=O)NS(=O)(=O)C6CC6)C[C@H]5/C=C\CCCCN(C)C(=O)[C@@H]4C3)cc(-c3nc(C(C)C)cs3)nc2c1C [Simeprevir]
IC50 (OATP1B1 [1]): 1000 nM
IC50 (OATP1B3): 500 nM
Imax,inlet,u ([2]; inhibitor dose 150 mg): 0.002 µM
∆CP-I Observed (OATP1B1 [3]; inhibitor dose 150 mg): 1.4

C[C@H]1CN(C2COC2)CCN1c1ccc(Nc2cc(-c3ccnc(N4CCn5c(cc6c5CC(C)(C)C6)C4=O)c3CO)cn(C)c2=O)nc1 [Fenebrutinib]
IC50 (OATP1B1 [1]): 6100 nM
IC50 (OATP1B3): 1200 nM
Imax,inlet,u ([2]; inhibitor dose 200 mg): 4.2 µM
∆CP-I Observed (OATP1B1 [3]; inhibitor dose 200 mg): 1

CO[C@H]1/C=C/O[C@@]2(C)Oc3c(C)c(O)c4c(O)c(c(/C=N/N5CCN(C)CC5)c(O)c4c3C2=O)NC(=O)/C(C)=C\C=C\[C@H](C)[C@H](O)[C@@H](C)[C@@H](O)[C@@H](C)[C@H](OC(C)=O)[C@@H]1C [Rifampicin]
IC50 (OATP1B3): 300 nM
Imax,inlet,u ([2]; inhibitor dose 150 mg): 3 µM
Imax,inlet,u ([2]; inhibitor dose 300 mg): 5.9 µM
Imax,inlet,u ([2]; inhibitor dose 600 mg): 11.9 µM
∆CP-I Observed (OATP1B1 [3]; inhibitor dose 150 mg): 1.5
∆CP-I Observed (OATP1B1 [3]; inhibitor dose 300 mg): 2.4 and 2.3
∆CP-I Observed (OATP1B1 [3]; inhibitor dose 600 mg): 3.5 and 3.7 and 4 and 5.6

CNS(=O)(=O)Cc1ccc2[nH]cc(CCN(C)C)c2c1 [sumatriptan]
increase in AUCinf (OCT1; sumatriptan with ritlecitinib coadministration, due to OCT1 inhibition): 30%
decrease in Cmax (OCT1; sumatriptan with ritlecitinib coadministration): 13%
exposure increase (OCT1; sumatriptan, liver OCT1 inhibition by ritlecitinib and M2): up to 50%

Source: paper PMC10733197, “Utilization of Rosuvastatin and Endogenous Biomarkers in Evaluating the Impact of Ritlecitinib on BCRP, OATP1B1, and OAT3 Transporter Activity” (Pharmaceutical Research, 2023)
